One assay relates to CHO cells. Put plainly: Effect of replacement compounds on the growth of CHO cells in CD CHO medium without transferrin, three passages. The format is cell-based, Chinese hamster. To be noted: third passage. As to the method:
(§1) The ability of replacement compounds to support cellular growth in the absence of transferrin was evaluated using CHO cells maintained in CD CHO medium (Invitrogen Corporation, Carlsbad, Calif., the formulation of which is described in WO 98/08934). Stock cultures containing 5 μg/mL human holo-transferrin were prepared in CD CHO medium. For replacement compound evaluation, CHO cells were established in 125 mL shaker flasks at an initial viable seeding density of 1×10^5 cells/mL in a final volume of 20 mL. All cultures were maintained at 37° C. in humidified air containing 8% CO2. To eliminate transferrin carry-over effects, cells were subcultured at 4 day intervals for a total of three passages. Positive control cultures contained 5 μg/mL human holo-transferrin while negative control cultures were established in the absence of either transferrin or replacement compound. Replacement compound stocks were prepared at 0.1M-0.2M in ddH2O and solubilized when necessary using 5N NaOH or HCl. Iron complexes were established using 0.2M replacement compound and iron stocks mixed 1:1 (v/v) and incubated for 5-10 minutes at 22° C. All solutions containing replacement compounds were filter sterilized using a 0.22 μm Millex-GV filter prior to addition to transferrin and serum-free media.
Except where noted, replacement compounds were evaluated either alone or in combination with ferric chloride or ferrous sulfate at 25 μM, 50 μM and 100 μM. Values in the table represent the mean percentage of control growth for duplicate cultures determined at the third passage.
The ability of various replacement compounds to substitute for transferrin in the culture of CHO cells was determined. When added to the medium formulation un-complexed, the replacement compound is listed alone, when added as a complex with a transition metal, the source of the transition metal is listed with the metal binding compound.

Assay [1] deals with 293 cells. Briefly: Effect of replacement compounds on the growth of 293 cells in 293 SFM without transferrin, three passages. The assay is classed as cell-based, human. To be noted: third passage, control 5 μg/mL human holo-transferrin. The procedure:
Semi-confluent adherent cultures of 293 Cells (ATCC, CRL 1573) are readily adapted to suspension culture. The cells are first detached with a solution of Trypsin-EDTA (0.05% Trypsin, 0.53 mM Na4EDTA), and then resuspended in conventional medium supplemented with 10% FBS to inhibit the trypsin. The resuspended cells are centrifuged at 200×g for five minutes.
The initial seeding density of the 293 cells after conversion to suspension culture is 1×10^6 cells/mL. The cells are shaken on a rotary shaker at 150 rpm in a 37° C. incubator equilibrated with 8% CO2-92% air. […] Because 293 cells have a tendency to aggregate, the cells can be vortexed vigorously for approximately 45 seconds to obtain a predominantly single cell suspension at the time of passaging and counting. After several passages in suspension culture, the maximum achievable density can be determined.
as §1, with “For” for “The ability of replacement compounds to support cellular growth in the absence of transferrin was evaluated using CHO cells maintained in CD CHO medium (Invitrogen Corporation, Carlsbad, Calif., the formulation of which is described in WO 98/08934). Stock cultures containing 5 μg/mL human holo-transferrin were prepared in CD CHO medium. For”, “evaluation, 293” for “evaluation, CHO”, “of 2×10^5” for “of 1×10^5”, “passages. At each subculturing, cells were seeded at a density of 2×10^5 cells/mL.” for “passages.”, “using 0.2 M” for “using 0.2M”
Except where noted, replacement compounds were evaluated either alone or in combination with ferric chloride or ferrous sulfate at 25 μM, 50 μM and 100 μM. When used in combination, the replacement compounds were used in equimolar concentration with iron ions. Values in Table 4 represent the mean percentage of control growth for duplicate cultures determined at the third passage.
When added to the medium formulation uncomplexed, the replacement compound is listed alone, when added as a complex with a transition metal, the source of the transition metal is listed with the replacement compound.

The subject of the next assay is Sp2/0 cells. Put plainly: Effect of replacement compounds on the growth of Sp2/0 cells in CD Hybridoma medium without transferrin, three passages. The assay is classed as cell-based. To be noted: third passage. As to the method:
The ability of replacement compounds to support cellular growth in the absence of transferrin was evaluated using Sp2/0 cells maintained in CD Hybridoma medium (Invitrogen Corporation, Carlsbad, Calif.).
Stock cultures containing 5 μg/mL human holo-transferrin were prepared in CD Hybridoma medium. For replacement compound evaluation, Sp2/0 cells were established at an initial viable cell density of 0.5×10^5 cells/mL in stationary culture using 75 cm^2 tissue culture flasks in a final volume of 20 mL. All cultures were maintained at 37° C. in humidified air containing 8% CO2. To eliminate transferrin carry-over effects, cells were subcultured at the same seeding density at 4 day intervals for a total of three passages. Positive control cultures contained 5 μg/mL human holo-transferrin while negative control cultures were established in the absence of either transferrin or replacement compound. Replacement compound stocks were prepared at 0.1M-0.2M in ddH2O and solubilized when necessary using 5N NaOH or HCl. Iron complexes were established using 0.2M replacement compound and iron stocks mixed 1:1 (v/v) and incubated for 5-10 minutes at 22° C. All solutions containing replacement compounds were filter sterilized using a 0.22 μm Millex-GV filter prior to addition to transferrin and serum-free media.
Except where otherwise noted, replacement compounds were evaluated either alone or in combination with ferric chloride or ferrous sulfate at 25 μM, 50 μM and 100 μM. Values in the table represent the mean percentage of control growth for duplicate cultures determined at the third passage.
When added to the medium formulation un-complexed, the replacement compound is listed alone, when added as a complex with a transition metal, the source of the transition metal is listed with the replacement compound.

Assay [2] has as its system 293 cells. Briefly: β-galactosidase expression after transfection (pCMV-SPORT-β-gal, LIPOFECTAMINE 2000) of 293 cells in monolayer culture, 24-well plates. The conditions noted are these: Table 8, replacement compounds 25 μM in test media, 24 hrs post-transfection. The assay is classed as cell-based, human. As to the method:
When cultured in suspension, cells were split to 3×10^5 viable cells per ml at each passage. On the week of transfection cells were seeded at 3×10^5 viable cells per ml. After ˜48 hrs of growth (day 2) cells were vortexed for 30 seconds and counted and appropriate volumes used for transfection as described in procedures below.
In addition, the base media comprises 2.4 g/L NaHCO3, 2.98 g/L Hepes, 4 mM L-glutamine and 3 ml/L PLURONIC F-68 (Invitrogen Corp., Carlsbad, Calif.).
The osmolarity is adjusted to from about 275-310 mOsm, preferably about 280 mOsm and the pH is adjusted to from about 7.0 to about 7.45 preferably about 7.4 respectively.
Three wells were set up for each treatment. A volume of media corresponding to 3×10^6 viable cells was centrifuged. The supernatant was removed and the cells re-suspended in 600 μl test media. Each well of a 24 well plate received 200 μl of the re-suspended cells.
To prepare the nucleic acid for the transfection experiments, 93 μl test media+3 μl DNA+24 μl LIPOFECTAMINE 2000 were combined in a microfuge tube and complexed for 30 minutes. A 40 μl aliquot of complex was added to each well. 250 μl test media was added to each well five hours after addition of complex. The final cell concentration was 1×10^6 viable cells per well; the final DNA concentration was 1 μg per 1×10^6 viable cells and the final LIPOFECTAMINE 2000 concentration was 8 μl per 1×10^6 viable cells.
24 hrs post-transfection, samples were collected for β-galactosidase quantitation. The contents of duplicate wells were pooled (i.e. ˜2×10^6 cells for the assay) for each sample and transferred to a microfuge tube. The cells were centrifuged, the supernatant was removed and the cells were re-suspended in 1 ml of D-PBS. The cells were pelleted a second time and re-suspended in 1 ml of D-PBS. The samples were then stored at −70° C. Prior to the assay for β-galactosidase, samples were freeze-thawed a total of five times.
293 cells were grown in monolayer culture in the presence of the various replacement compounds indicated and transfection experiments performed as described above. The results are shown in Table 8 and the values are β-galactosidase activity expressed as nanograms of β-galactosidase per 2×10^6 cells. A comparison was made between the transfection efficiency of DNA complexes formed in D-MEM medium and DNA complexes formed in test medium. […]
For cells transfected in 24-well plates, cells densities used were 1×10^6 viable cells per well.

Where [3] appears, read: 25 μM, control 5 μg/mL human holo-transferrin.
The mark [4] stands for this setting: 25 μM, iron equimolar where combined.

7 compounds from patent publication US9879243B2, “Culture medium for cell growth and transfection” (LIFE TECHNOLOGIES CORPORATION, priority 2001, dated 2018) can be followed below.

For 4-Pyridoxic Acid•Ferric Chloride, the “mean percentage of control growth” value is on record as 55 percentage of control growth in the assay with CHO cells (setting [3]); 63 percentage of control growth in the assay with CHO cells (50 μM); 100 percentage of control growth in the assay on CHO cells (100 μM); 109 percentage of control growth in the assay with 293 cells [1] (setting [4]); 85 percentage of control growth in the assay with 293 cells [1] (50 μM); 99 percentage of control growth in the assay with 293 cells [1] (100 μM). Besides, the “mean percentage of control growth” value in the assay on Sp2/0 cells (setting [3]) is recorded as 40 percentage of control growth; in the assay with Sp2/0 cells (50 μM), 73 percentage of control growth; in the assay on Sp2/0 cells (100 μM), 76 percentage of control growth.

For the compound `[Cl][Fe]([Cl])[Cl].[O-][n+]1cccc(O)c1` [3-Hydroxypyridine-N-Oxide•Ferric Chloride], the “mean percentage of control growth” value in the assay on CHO cells (setting [3]) is 77 percentage of control growth; in the assay on CHO cells (50 μM), 66 percentage of control growth; with CHO cells (100 μM), 101 percentage of control growth; in the assay with 293 cells [1] (setting [4]), 77 percentage of control growth; with 293 cells [1] (50 μM), 72 percentage of control growth; with 293 cells [1] (100 μM), 81 percentage of control growth. Moreover, the “mean percentage of control growth” value with Sp2/0 cells (setting [3]) was 55 percentage of control growth; in the assay on Sp2/0 cells (50 μM) it was 54 percentage of control growth; in the assay with Sp2/0 cells (100 μM), 57 percentage of control growth.

As for `O=S(=O)([O-])[O-].[Fe+2].[O-][n+]1cccc(O)c1` [3-Hydroxypyridine-N-Oxide•Ferrous Sulfate], the “mean percentage of control growth” value with 293 cells [1] (setting [4]) is 104 percentage of control growth; with 293 cells [1] (50 μM) it was 58 percentage of control growth; in the assay on 293 cells [1] (100 μM), 0 percentage of control growth. In addition, the “β-galactosidase activity; D-MEM used for complexing, Test media to re-suspend cells” value (“β-galactosidase activity; D-MEM used” below) with 293 cells [2] is 176 nanograms of β-galactosidase per 2×10^6 cells. In addition, the “β-galactosidase activity; Test Media used for complexing and to re-suspend cells” value in the assay with 293 cells [2] is listed as 317 nanograms of β-galactosidase per 2×10^6 cells.

Regarding “Diethylenetriamine Penta-Acetic Acid•Ferric Chloride”, the “mean percentage of control growth” value in the assay on 293 cells [1] (setting [4]) is 79 percentage of control growth; in the assay with 293 cells [1] (50 μM), 96 percentage of control growth; in the assay on 293 cells [1] (100 μM) it was 102 percentage of control growth. The “β-galactosidase activity; D-MEM used” value in the assay with 293 cells [2] was 131 nanograms of β-galactosidase per 2×10^6 cells. The “β-galactosidase activity; Test Media used for complexing and to re-suspend cells” value with 293 cells [2] is 574 nanograms of β-galactosidase per 2×10^6 cells.

Regarding “Human Transferrin (as control): human transferrin used as control replacement compound in test media”, in the assay on 293 cells [2], the “β-galactosidase activity; D-MEM used” value was 326 nanograms of β-galactosidase per 2×10^6 cells; the “β-galactosidase activity; Test Media used for complexing and to re-suspend cells” value is on record as 3279 nanograms of β-galactosidase per 2×10^6 cells.

For the compound Serine Hydroxamate•Ferric Chloride, the “mean percentage of control growth” value with CHO cells (setting [3]) is 106 percentage of control growth; in the assay with CHO cells (50 μM), 121 percentage of control growth; in the assay with CHO cells (100 μM), 124 percentage of control growth; with 293 cells [1] (setting [4]), 68 percentage of control growth; with 293 cells [1] (50 μM), 65 percentage of control growth; in the assay with 293 cells [1] (100 μM), 51 percentage of control growth. The figures for the “mean percentage of control growth” value in the assay on Sp2/0 cells (setting [3]), in the assay with Sp2/0 cells (50 μM) and in the assay with Sp2/0 cells (100 μM) were 46 percentage of control growth, 66 percentage of control growth and 62 percentage of control growth, respectively.

Sorbitol•Ferric Chloride: the “mean percentage of control growth” value is 100 percentage of control growth with CHO cells (setting [3]); 107 percentage of control growth in the assay on CHO cells (50 μM); 112 percentage of control growth with CHO cells (100 μM); 94 percentage of control growth with Sp2/0 cells (setting [3]); 55 percentage of control growth with Sp2/0 cells (50 μM); 60 percentage of control growth in the assay with Sp2/0 cells (100 μM).
